Data published in US10988445B2 (AstraZeneca AB, priority 2015, dated 2021).

System: human TH17 cells
Assay: Inhibition of IL-17 release from human TH17 cells
Format: cell-based
Settings: isolated human TH17 cells, 4 days culture, IL-17A by HTRF; for IC50: Homo sapiens, 96 h, read-out: pIC50 IL-17 release (converted)
Description: Inhibition of IL-17 Release from Human TH17 Cells (IL-17 Release)
This test is designed to screen compounds for their inhibitory effect on the release of IL-17 from isolated and cultured human TH17 cells.
Peripheral blood mononuclear cells (PBMC) were isolated from heparin treated human whole blood fromhealthy donors by density gradient centrifugation. TH17 cells (CD4+CXCR3-CCR6+) were enriched using a human TH17 Cell Enrichment Kit (Stemcell Technologies) according to the manufacturer's protocol. […] On day 4 supernatants were collected and IL-17A was measured using a Human IL-17 HTRF Assay kit (Cisbio Bioassays) according to the manufacturer's protocol. […] Results

SMILES | IC50 [nM] | pIC50 IL-17 release (listed as 303, isomer 1)
N#CC1(C(=O)N2Cc3cc(S(=O)(=O)C4CC4)ccc3C2C(=O)Nc2ccc(C(O)(C(F)(F)F)C(F)(F)F)cc2)CC1 (stereo not drawn) [Example 607, 2-[(1-Cyanocyclopropyl)carbonyl]-5-(cyclopropylsulfonyl)-N-[4-(1,1,1,3,3,3-hexafluoro-2-hydroxypropan-2-yl)phenyl]-2,3-dihydro-1H-isoindole-1-carboxamide] | 39.8 | 
CS(=O)(=O)c1ccc2c(c1)CN(C(=O)C1(C#N)CC1)C2C(=O)Nc1ccc(C(O)(C(F)(F)F)C(F)(F)F)c(F)c1 (stereo not drawn) [Example 439, 2-[(1-Cyanocyclopropyl)carbonyl]-N-[3-fluoro-4-(1,1,1,3,3,3-hexafluoro-2-hydroxypropan-2-yl)phenyl]-5-(methylsulfonyl)-2,3-dihydro-1H-isoindole-1-carboxamide] | 25.1 | 
CCS(=O)(=O)c1ccc2c(c1)CN(C(=O)CC(C)(C)O)C2C(=O)Nc1ccc(C(O)(C(F)(F)F)C(F)(F)F)cc1 (stereo not drawn) [Example 106, 5-(Ethylsulfonyl)-N-[4-(1,1,1,3,3,3-hexafluoro-2-hydroxypropan-2-yl)phenyl]-2-(3-hydroxy-3-methylbutanoyl)-2,3-dihydro-1H-isoindole-1-carboxamide] | 63.1 | 
CC(C)(O)CC(=O)N1Cc2cc(S(C)(=O)=O)ccc2C1C(=O)Nc1ccc(C(O)(C(F)(F)F)C(F)(F)F)cc1 (stereo not drawn) [Example 421, N-[4-(1,1,1,3,3,3-Hexafluoro-2-hydroxypropan-2-yl)phenyl]-2-(3-hydroxy-3-methylbutanoyl)-5-(methylsulfonyl)-2,3-dihydro-1H-isoindole-1-carboxamide] | 100 | 
C[C@@H](F)CC(=O)N1Cc2cc(S(C)(=O)=O)ccc2C1C(=O)Nc1ccc(C(O)(C(F)(F)F)C(F)(F)F)cc1 (stereo partly drawn) [Example 418, 2-[(3R)-3-Fluorobutanoyl]-N-[4-(1,1,1,3,3,3-hexafluoro-2-hydroxypropan-2-yl)phenyl]-5-(methylsulfonyl)-2,3-dihydro-1H-isoindole-1-carboxamide] | 39.8 | 
CCOC(=O)N1Cc2cc(S(=O)(=O)CC3CC3)ccc2C1C(=O)Nc1ccc(C(O)(C(F)(F)F)C(F)(F)F)cc1 (stereo not drawn) [Example 204, Ethyl 5-[(cyclopropylmethyl)sulfonyl]-1-{[4-(1,1,1,3,3,3-hexafluoro-2-hydroxypropan-2-yl)phenyl]carbamoyl}-1,3-dihydro-2H-isoindole-2-carboxylate] | 7.94 | 
CNC(=O)N1Cc2cc(S(=O)(=O)NC)ccc2C1C(=O)Nc1ccc(C(O)(C(F)(F)F)C(F)(F)F)cc1 (stereo not drawn) [Example 314] | 63.1 | 
CCS(=O)(=O)c1ccc2c(c1)CN(C(=O)CC#N)C2C(=O)Nc1ccc(C(O)(C(F)(F)F)C(F)(F)F)cc1 (stereo not drawn) [Example 116, 2-(Cyanoacetyl)-5-(ethylsulfonyl)-N-[4-(1,1,1,3,3,3-hexafluoro-2-hydroxypropan-2-yl)phenyl]-2,3-dihydro-1H-isoindole-1-carboxamide] | 200 | 
CC(=O)N1Cc2cc(S(=O)(=O)CC(C)O)ccc2C1C(=O)Nc1ccc(C(O)(C(F)(F)F)C(F)(F)F)cc1 (stereo not drawn) [Example 1200, 2-Acetyl-N-[4-(1,1,1,3,3,3-hexafluoro-2-hydroxypropan-2-yl)phenyl]-5-[(2-hydroxypropyl)sulfonyl]-2,3-dihydro-1H-isoindole-1-carboxamide] | 158 | 
COCCS(=O)(=O)c1ccc2c(c1)CN(C(=O)C1(OC)CC1)C2C(=O)Nc1ccc(C(O)(C(F)(F)F)C(F)(F)F)cc1 (stereo not drawn) [Example 703, N-[4-(1,1,1,3,3,3-hexafluoro-2-hydroxypropan-2-yl)phenyl]-2-[(1-methoxycyclopropyl)carbonyl]-5-[(2-methoxyethyl)sulfonyl]-2,3-dihydro-1H-isoindole-1-carboxamide] | 25.1 | 
CNS(=O)(=O)c1ccc2c(c1)CN(C(=O)OC)C2C(=O)Nc1ccc(C(O)(C(F)(F)F)C(F)(F)F)cc1 (stereo not drawn) [Example 304, Methyl 1-{[4-(1,1,1,3,3,3-hexafluoro-2-hydroxypropan-2-yl)phenyl]carbamoyl}-5-(methylsulfamoyl)-1,3-dihydro-2H-isoindole-2-carboxylate] | 12.6 | 
CS(=O)(=O)c1ccc2c(c1)CN(C=O)C2C(=O)Nc1ccc(C(O)(C(F)(F)F)C(F)(F)F)cc1F (stereo not drawn) [Example 442] | 50.1 | 
C[C@H](F)CC(=O)N1Cc2cc(S(C)(=O)=O)ccc2C1C(=O)Nc1ccc(C(O)(C(F)(F)F)C(F)(F)F)cc1 (stereo partly drawn) [Example 413, 2-[(3S)-3-Fluorobutanoyl]-N-[4-(1,1,1,3,3,3-hexafluoro-2-hydroxypropan-2-yl)phenyl]-5-(methylsulfonyl)-2,3-dihydro-1H-isoindole-1-carboxamide] | 31.6 | 
COCC(=O)N1Cc2cc(S(=O)(=O)C3CC3)ccc2C1C(=O)Nc1ccc(C(O)(C(F)(F)F)C(F)(F)F)cc1 (stereo not drawn) [Example 606, 5-(Cyclopropylsulfonyl)-N-[4-(1,1,1,3,3,3-hexafluoro-2-hydroxypropan-2-yl)phenyl]-2-(methoxyacetyl)-2,3-dihydro-1H-isoindole-1-carboxamide] | 31.6 | 
CCC(OC)C(=O)N1Cc2cc(S(C)(=O)=O)ccc2C1C(=O)Nc1ccc(C(O)(C(F)(F)F)C(F)(F)F)cc1 (stereo not drawn) [Example 447, N-[4-(1,1,1,3,3,3-Hexafluoro-2-hydroxypropan-2-yl)phenyl]-2-(2-methoxybutanoyl)-5-(methylsulfonyl)-2,3-dihydro-1H-isoindole-1-carboxamide] | 50.1 | 
CCS(=O)(=O)c1ccc2c(c1)CN(C(=O)C1(CO)CC1)C2C(=O)Nc1ccc(C(O)(C(F)(F)F)C(F)(F)F)cc1 (stereo not drawn) [Example 117, 5-(Ethylsulfonyl)-N-[4-(1,1,1,3,3,3-hexafluoro-2-hydroxypropan-2-yl)phenyl]-2-{[1-(hydroxymethyl)cyclopropyl]carbonyl}-2,3-dihydro-1H-isoindole-1-carboxamide] | 79.4 | 
CNS(=O)(=O)c1ccc2c(c1)CNC2C(=O)Nc1ccc(C(O)(C(F)(F)F)C(F)(F)F)cc1 (stereo not drawn) [Example 300, N-[4-(1,1,1,3,3,3-hexafluoro-2-hydroxypropan-2-yl)phenyl]-5-(methylsulfamoyl)-2,3-dihydro-1H-isoindole-1-carboxamide] | 25.1 | 
COC1(C(=O)N2Cc3cc(S(C)(=O)=O)ccc3C2C(=O)Nc2ccc(C(O)(C(F)(F)F)C(F)(F)F)cc2)CCCC1 (stereo not drawn) [Example 434] | 25.1 | 
CCNC(=O)N1Cc2cc(S(C)(=O)=O)ccc2C1C(=O)Nc1ccc(C(O)(C(F)(F)F)C(F)(F)F)cc1 (stereo not drawn) [Example 454, N^2-Ethyl-N^1-[4-(1,1,1,3,3,3-hexafluoro-2-hydroxypropan-2-yl)phenyl]-5-(methylsulfonyl)-1,3-dihydro-2H-isoindole-1,2-dicarboxamide] | 39.8 | 
CS(=O)(=O)c1ccc2c(c1)CN(C(=O)NC1CC1)C2C(=O)Nc1ccc(C(O)(C(F)(F)F)C(F)(F)F)cc1 (stereo not drawn) [Example 456, N^2—Cyclopropyl-N^1-[4-(1,1,1,3,3,3-hexafluoro-2-hydroxypropan-2-yl)phenyl]-5-(methylsulfonyl)-1,3-dihydro-2H-isoindole-1,2-dicarboxamide] | 12.6 | 
CC[C@@H](O)C(=O)N1Cc2cc(S(=O)(=O)NC)ccc2C1C(=O)Nc1ccc(C(O)(C(F)(F)F)C(F)(F)F)cc1 (single isomer, unassigned) [Example 303, isomer 1] |  | 6.7
